How the values were obtained:
[1] = molecular target: T1, PKM2 (Homo sapiens, UniProt P14618); assay: Radiotracer uptake after PKM2 siRNA knockdown in HeLa cells; type: cell-based; set-up: endogenous in cells; host or cells: HeLa
Procedure: PKM2 siRNA: Time course PKM2 knockdown in HeLa cells was assessed over 72 h post-transfection. Cells were seeded in 6-well plates in antibiotic-free DMEM at 1.5×10^6 cells/well 24 h prior to siRNA transfection with DharmaFECT1 (Thermo Scientific), according to the manufacturer's instruction. Specific siRNA targeting only PKM2 were custom made by Thermo Scientific using the following sequences: […] (sense) (SEQ ID NO: 1), […] (antisense) (SEQ ID NO: 2). Scrambled siRNA (siCtrl; Cell Signaling Technology) was used as a control. siRNA were added at a final concentration of 25 nM. [^11C]DASA-23 uptake (0.925 MBq/mL) was measured after 30 min in cells transfected with siCtrl and siPKM2 at 24 h, 48 h and 72 h post transfection, and processed as described in Example 4, above. Untreated cells were used as a further control, measured 24 h post addition of fresh DMEM and 96 h post seeding.
Western Blotting: Monoclonal rabbit antibody to PKM1 and PKM2 (1:1000 dilution, Cell Signaling Technology) were used in a standard western blotting protocol. A rabbit anti-actin antibody (Sigma-Aldrich Co. Ltd; 1:2000) was used as a loading control. Blots were scanned and signal quantification was performed using ImageJ (National Institutes of Health).
Target sequence in this assay (P14618 2-531 limits assumed): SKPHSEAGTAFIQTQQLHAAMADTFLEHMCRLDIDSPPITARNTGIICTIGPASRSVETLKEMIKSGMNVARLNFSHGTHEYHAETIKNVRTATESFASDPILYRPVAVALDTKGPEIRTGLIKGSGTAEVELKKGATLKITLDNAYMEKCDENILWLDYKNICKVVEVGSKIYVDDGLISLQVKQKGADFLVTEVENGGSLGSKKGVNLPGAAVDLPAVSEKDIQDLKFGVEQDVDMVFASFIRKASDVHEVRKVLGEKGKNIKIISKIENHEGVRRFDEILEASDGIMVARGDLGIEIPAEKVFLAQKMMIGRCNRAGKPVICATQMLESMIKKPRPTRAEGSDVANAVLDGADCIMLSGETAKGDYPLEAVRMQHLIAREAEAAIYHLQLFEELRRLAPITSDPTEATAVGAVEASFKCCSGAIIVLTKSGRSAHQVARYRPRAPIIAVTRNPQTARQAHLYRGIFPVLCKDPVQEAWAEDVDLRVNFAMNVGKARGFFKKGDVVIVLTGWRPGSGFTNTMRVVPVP

[2] = test system: subcutaneous U87 human glioma xenografts; assay: PET/CT and ex vivo biodistribution in mice bearing subcutaneous U87 xenografts; set-up: species or system mouse
Procedure: (§1) In vivo Tumor Models: For subcutaneous tumor models, U87 tumor cells (5×10^6 cells; 100 μL PBS) were injected subcutaneously on the back of female BALB/c nude mice (aged 6-8 weeks; Charles River Laboratories) and grown to approximately 150 mm^3. Tumor dimensions were measured periodically using a caliper (by the same experienced researcher), with tumor volumes calculated by the equation: volume=(π/6)×a×b×c, where a, b, and c represent three orthogonal axes of the tumor. For orthotopic brain tumor models, 2×10^5 U87 cells were implanted 0.5 mm anterior and 2 mm to the right of the bregma in the brains of 6-8 week-old nude mice, held in place using a stereotactic unit. The cells, suspended in 4 μL PBS, were injected at a depth of 3 mm over 5 min with an AS blunt-ended Hamilton syringe, which was subsequently held in place for a further 5 min. Animals were anaesthetized with an i.p. injection of 150 mg/kg ketamine, 15 mg/kg xylazine. Mice were subsequently imaged by MRI and PET 32-35 days post intracranial injection and GBM39 tumor-bearing mice were imaged between 44-50 days after implantation.
(§2) PET imaging scans were carried out on a docked Siemens Inveon PET/CT scanner (matrix size, 128×128×159; CT attenuation-corrected; non-scatter corrected), following a bolus i.v. injection of approximately 18.5 MBq of [^11C]DASA-23 into tumor-bearing mice. Dynamic scans were acquired in list mode format over 60 min. The acquired data were then sorted into 0.5-mm sinogram bins and 19 time frames for image reconstruction (4×15 s, 4×60 s and 11×300 s), which was done by iterative reconstruction using the following parameters: 3D ordered-subsets expectation maximization (3D-OSEM) followed by fast maximum a posteriori (fastMAP); MAP OSEM interations, 2; MAP subsets, 16; MAP iterations, 18.
(§3) The count densities were averaged for all volumes of interest at each time point to obtain a time versus radioactivity curve (TAC). Tumor and tissue TACs were normalized to injected dose, measured by a CRC-15 PET dose calibrator (Capintec, Inc.), and expressed as percentage injected dose per milliliter of tissue (% ID/mL). The area under the TAC, calculated as the integral of % ID/mL from 0 to 60 min, and the normalized uptake of radiotracer at 60 min (% ID/mL60) were also used for comparisons. Siemens Inveon Research Workplace software (v.4.0) was used for visualization of radiotracer uptake in the tumor, to define the three-dimensional (3D) volumes of interest (VOI) and for 3D-visualization to create volume rendering technique (VRT) images.
Ex vivo Biodistribution: After the PET imaging studies, 60 min post radiotracer administration, mice were sacrificed by exsanguination via cardiac puncture and tissues harvested. Tissue radioactivity for all organs was subsequently determined on a gamma counter (decay-corrected; Cobra II Auto-Gamma counter, Packard Biosciences Co, Pangbourne, UK). Ten-microliter standards from the stock activity were also counted for data normalization. Data were expressed as percent injected dose per gram of tissue (% ID/g).

[3] = test system: U87 human glioma cells; assay: Cell uptake and efflux of radiotracer in U87 cells; type: cell-based
Procedure: (§4) Cell Uptake and Efflux Studies: U87 and HeLa cells (2×10^5) were plated into 6-well plates overnight before [^11C]DASA-23 uptake analysis. On the day of the experiment, fresh, pre-warmed DMEM containing 0.925 MBq of [^11C]DASA-23 was added to individual wells (1 mL/well, 9.25±4.63 pmol).
(§5) Cells were incubated with [^11C]DASA-23 at 37° C. and 5% CO2 over a 60 min time course. At the respective time points, plates were placed on ice, washed 3 times with ice-cold phosphate-buffered saline (PBS), and lysed in radioimmunoprecipitation assay buffer (Thermo Fisher Scientific Inc.; 500 μL). 300 μL cell lysates were transferred to counting tubes and decay-corrected radioactivity was determined on a y counter (Cobra II Auto-Gamma counter; Packard Biosciences Co.). The remaining lysate was frozen and used following radioactive decay for protein determination using a bicinchoninic acid (BCA) 96-well plate assay (Thermo Fisher Scientific Inc.) and for immunoblotting. In addition, 10 μL standards from the 0.925 MBq/mL solution added to cells were counted to quantitate percentage radiotracer uptake. For efflux studies, cells were incubated with radiotracer for 60 min, washed 3 times with room temperature (RT) Hank's Buffered Salt Solution (HBSS) before subsequent incubation at 37° C. in fresh, radiotracer-free, DMEM. At allotted times, samples were processed.

[4] = test system: PKM2 in orthotopic GBM39 PDX tumors; assay: PET imaging of orthotopic GBM39 PDX tumors at baseline and after TEPP-46 blocking; type: in vivo, mouse
Procedure: as §1, §2, §3

[5] = test system: orthotopic U87 human gliomas; assay: PET imaging of orthotopic U87 tumors in mice; type: in vivo, mouse; conditions: 30 min after injection
Procedure: as §1, with “Animals were anaesthetized with an i.p. injection of 150 mg/kg ketamine, 15 mg/kg xylazine. Mice were subsequently imaged by MRI and PET 32-35 days post intracranial injection and GBM39 tumor-bearing mice were imaged between 44-50 days after implantation.” left out
The count densities were averaged for all volumes of interest at each time point to obtain a time versus radioactivity curve (TAC). Tumor and tissue TACs were normalized to injected dose, measured by a CRC-15 PET dose calibrator (Capintec, Inc.), and expressed as percentage injected dose per milliliter of tissue (% ID/mL). The area under the TAC, calculated as the integral of % ID/mL from 0 to 60 min, and the normalized uptake of radiotracer at 60 min (% ID/mL60) were also used for comparisons. […]

[6] = test system: HeLa cells; assay: Cell uptake and efflux of radiotracer in HeLa cells; type: cell-based, human
Procedure: as §4, §5

[7] = molecular target: T1, PKM2; conditions: versus PKM1, PKR and PKL; cited from earlier work
Target sequence in this assay (P14618 whole entry, species assumed): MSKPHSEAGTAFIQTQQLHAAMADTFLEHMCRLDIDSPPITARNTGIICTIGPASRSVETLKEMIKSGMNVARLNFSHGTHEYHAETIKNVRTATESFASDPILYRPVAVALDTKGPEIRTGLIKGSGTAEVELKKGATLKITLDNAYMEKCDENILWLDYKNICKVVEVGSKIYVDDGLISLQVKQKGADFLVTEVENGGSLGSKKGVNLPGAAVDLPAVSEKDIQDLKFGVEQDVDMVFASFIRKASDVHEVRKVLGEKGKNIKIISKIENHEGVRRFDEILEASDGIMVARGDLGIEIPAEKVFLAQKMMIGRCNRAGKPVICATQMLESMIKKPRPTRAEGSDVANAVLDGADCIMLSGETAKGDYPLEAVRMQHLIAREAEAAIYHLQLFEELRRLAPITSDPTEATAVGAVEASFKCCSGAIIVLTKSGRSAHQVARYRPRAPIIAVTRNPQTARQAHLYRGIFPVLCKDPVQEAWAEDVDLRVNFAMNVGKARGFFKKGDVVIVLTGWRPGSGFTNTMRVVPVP

[8] = Ex vivo mouse plasma stability; type: in vitro ADME; conditions: after 60 min, 37° C.
Procedure: Plasma Stability: [^11C]DASA-23 stability in mouse plasma was assessed ex vivo according to previously described methodology (James et al., (2012) J. Med. Chem. 55: 8272-8282, incorporated herein by reference in its entirety.
Samples were incubated for 10 min, 30 min, and 60 min and compared to a standard from the respective injected probe.

[9] = 30 min post removal of exogenous radiotracer

[11CH3]Oc1ccc(S(=O)(=O)N2CCN(S(=O)(=O)c3c(F)cccc3F)CC2)cc1 [[^11C]DASA-23, 1-((2,6-difluorophenyl)sulfon-yl)-4-((4-(methoxy-^11C)phenyl)sulfonyl)piperazine]
reduction in uptake in siPKM2 cells versus control siRNA ([1]; 24 h post transfection): 16.5% | uptake in siPKM2 cells as % of siCtrl cells ([1]; 72 h post transfection): 44.5% | uptake ratio of U87 tumor to blood ([2]; 60 min post injection): 1.1 | uptake ratio of U87 tumor to brain ([2]; 60 min post injection): 2.1 | uptake ratio of U87 tumor to muscle ([2]; 60 min post injection): 1.6 | time of peak brain uptake ([2]; dynamic PET, normal brain, after injection): 30 s | time to reach background levels in brain ([2]; dynamic PET, post injection): ≤ 10 min | time of peak tumor uptake ([2]; dynamic PET, subcutaneous U87 tumor): 10 min | accumulation in the brain ([2]; ex vivo biodistribution): did not accumulate in the brain | U87 tumor uptake ([2]; ex vivo biodistribution, 60 min post injection): 1.78±0.23 % of the injected dose (ID)/g | initial intracellular radioactivity retained [3, 9]: about 40% | cellular uptake ([3]; by 30 min): 19.6±2.0 % radioactivity/mg protein | tumor-associated retention at baseline ([4]; GBM39 tumor, 30 min after radiotracer injection): 1.61±0.25 % ID/g | tumor-associated retention after TEPP-46 ([4]; GBM39 tumor, 30 min after radiotracer injection, 1 hour after TEPP-46 50 mg/kg i.p.): 0.93±0.10 % ID/g | uptake in control, contralateral healthy brain ([4]; GBM39 tumor-bearing mice): 0.79±0.18 % ID/g | radioactivity in the contralateral background tissue [5]: 0.78±0.18 % ID/g | radioactivity in the tumor ([5]; orthotopic U87 tumor): 1.68±0.47 % ID/g | initial intracellular radioactivity retained [6, 9]: about 40% | cellular uptake ([6]; by 30 min): 14.9±2.0 %radioactivity/mg protein | selectivity of activation versus other pyruvate kinase isozymes [7]: selective activation of PKM2 | parent remaining in plasma [8]: > 96%

Cn1c2cc([S+](C)[O-])sc2c2cnn(Cc3cccc(N)c3)c(=O)c21 (centres unmarked) [TEPP-46, 6-((3-Aminophenyl)methyl)-4-methyl-2-methylsulfinylthieno[3,4]pyrrolo[1,3-d]pyridazin-5-one, reference compound]
decrease of tumor-associated [^11C]DASA-23 retention ([4]; TEPP-46 50 mg/kg i.p., 1 hour before radiotracer): 42% | effect on [^11C]DASA-23 tumor signal ([4]; one hour after TEPP-46 injection): complete ablation of tumor signal to background levels

Source: patent publication US10039844B2, “Imaging tumor glycolysis by non-invasive measurement of pyruvate kinase M2” (The Board of Trustees of the Leland Stanford Junior …, priority 2014, dated 2018)
